Results from ChEMBL document CHEMBL1201862, “PubChem BioAssay data set” (2004).
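Briefly, cells in 96-well plates were exposed to five compound concentrations for 48 h, and endpoints were estimated by linear interpolation. GI50 = concentration required for 50% inhibition of growth.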 Activity calls are given as the source filed them. No stated cut-off is given here; in the data, active = GI50 up to about 1.1 µM and inactive = higher.

Key:
Test in all cases: NCI tumour cell line growth inhibition, 48 h
786-0 = tested on: 786-0
BT-549 = tested on: BT-549
CCRF-CEM = tested on: CCRF-CEM
HCT-15 = tested on: HCT-15
LOX IMVI = tested on: LOX IMVI
MDA-MB-231 = tested on: MDA-MB-231
MDA-MB-435 = tested on: MDA-MB-435
Malme-3M = tested on: Malme-3M
NCI-H226 = tested on: NCI-H226
NCI-H23 = tested on: NCI-H23
OVCAR-3 = tested on: OVCAR-3
PC-3 = tested on: PC-3
RPMI-8226 = tested on: RPMI-8226
SF-268 = tested on: SF-268
SK-MEL-5 = tested on: SK-MEL-5
SK-OV-3 = tested on: SK-OV-3
TK-10 = tested on: TK-10
U-251 = tested on: U-251
UACC-62 = tested on: UACC-62
RXF 393 = tested on: RXF 393

Row | Structure (SMILES) | GI50 (786-0) | GI50 (BT-549) | GI50 (CCRF-CEM) | GI50 (HCT-15) | GI50 (LOX IMVI) | GI50 (MDA-MB-231) | GI50 (MDA-MB-435) | GI50 (Malme-3M) | GI50 (NCI-H226) | GI50 (NCI-H23) | GI50 (OVCAR-3) | GI50 (PC-3) | GI50 (RPMI-8226) | GI50 (SF-268) | GI50 (SK-MEL-5) | GI50 (SK-OV-3) | GI50 (TK-10) | GI50 (U-251) | GI50 (UACC-62) | GI50 (RXF 393)
1 | O=C(O)Cn1cnc2c(O)nc(Nc3ccccc3)nc21 | > 100 µM (inactive) | > 100 µM (inactive) | > 100 µM (inactive) | > 100 µM | > 100 µM (inactive) | > 100 µM (inactive) | > 100 µM (inactive) | > 100 µM (inactive) | > 100 µM (inactive) | > 100 µM (inactive) | > 100 µM (inactive) | > 100 µM (inactive) | > 100 µM (inactive) | > 100 µM (inactive) | > 100 µM (inactive) | > 100 µM (inactive) | > 100 µM (inactive) | > 100 µM (inactive) | > 100 µM (inactive) | –
2 | CCCCNC(=S)Nc1nc(C(=O)NNC(=S)NCC)cs1 | > 100 µM (inactive) | > 100 µM (inactive) | 44 µM (inactive) | 23 µM | 33.2 µM (inactive) | 99.8 µM (inactive) | > 100 µM (inactive) | > 100 µM (inactive) | > 10 µM (inactive) | > 100 µM (inactive) | 44 µM (inactive) | > 100 µM (inactive) | > 100 µM (inactive) | > 100 µM (inactive) | 25.7 µM (inactive) | > 100 µM (inactive) | > 100 µM (inactive) | > 100 µM (inactive) | > 100 µM (inactive) | –
3 | COC(=O)C1=C(O)C(C(=O)OC)[C@]2(O)[C@H](C(=O)OC)[C@H]1C[C@@H](c1cccc(OC)c1)[C@H]2C(=O)OC (some centres not stated) | 20.7 µM (inactive) | 30.6 µM (inactive) | – | 26.3 µM | 36.5 µM (inactive) | 27.2 µM (inactive) | 17.5 µM (inactive) | 24.5 µM (inactive) | 28.8 µM (inactive) | 30.4 µM (inactive) | – | – | 19.4 µM (inactive) | 26.1 µM (inactive) | 23.5 µM (inactive) | 28.2 µM (inactive) | 34 µM (inactive) | 24.2 µM (inactive) | 16.9 µM (inactive) | 18.8 µM (inactive)
4 | O=C(CSCC(=O)N/N=C\c1cccc(Br)c1)N/N=C\c1cccc(Br)c1 | 19.1 µM (inactive) | 21.2 µM (inactive) | – | 21.2 µM | 10.8 µM (inactive) | 12.7 µM (inactive) | 18.5 µM (inactive) | 0.182 µM (active) | 15.7 µM (inactive) | 14.6 µM (inactive) | 13.4 µM (inactive) | 14.5 µM (inactive) | – | 14.1 µM (inactive) | 19.1 µM (inactive) | 20.1 µM (inactive) | 11.6 µM (inactive) | 15.1 µM (inactive) | 14.7 µM (inactive) | 20.3 µM (inactive)
5 | CC1(C)OCC2(CO1)CSCCCSCC1(COC(C)(C)OC1)CSCCCSC2 | > 100 µM (inactive) | > 100 µM (inactive) | > 100 µM (inactive) | > 100 µM | > 100 µM (inactive) | > 100 µM (inactive) | > 100 µM (inactive) | – | – | > 100 µM (inactive) | > 100 µM (inactive) | > 100 µM (inactive) | > 100 µM (inactive) | > 100 µM (inactive) | > 100 µM (inactive) | > 100 µM (inactive) | > 100 µM (inactive) | > 100 µM (inactive) | > 100 µM (inactive) | –
6 | CCOC(=O)C1C(=O)CC(O)(OCC)C(C(=O)OCC)C1c1ccc(OC)cc1 (configuration not stated) | > 100 µM (inactive) | > 100 µM (inactive) | > 100 µM (inactive) | > 100 µM | > 100 µM (inactive) | > 100 µM (inactive) | > 100 µM (inactive) | > 100 µM (inactive) | > 100 µM (inactive) | > 100 µM (inactive) | > 100 µM (inactive) | > 100 µM (inactive) | – | > 100 µM (inactive) | > 100 µM (inactive) | – | > 100 µM (inactive) | > 100 µM (inactive) | > 100 µM (inactive) | > 100 µM (inactive)
7 | CN(C)CCNC(=O)c1nc([N+](=O)[O-])cn1C | > 100 µM (inactive) | > 100 µM (inactive) | > 100 µM (inactive) | > 100 µM | > 100 µM (inactive) | > 100 µM (inactive) | > 100 µM (inactive) | > 100 µM (inactive) | – | > 100 µM (inactive) | > 100 µM (inactive) | > 100 µM (inactive) | > 100 µM (inactive) | > 100 µM (inactive) | > 100 µM (inactive) | > 100 µM (inactive) | > 100 µM (inactive) | > 100 µM (inactive) | > 100 µM (inactive) | –
8 | O=[N+]([O-])c1ccc(O)c(/C=N/CC2CCCN3CCCCC23)c1 (configuration not stated) | 38.8 µM (inactive) | 38.6 µM (inactive) | – | 41.1 µM | 38.8 µM (inactive) | 88.1 µM (inactive) | – | 31 µM (inactive) | 26.5 µM (inactive) | 46.7 µM (inactive) | 31 µM (inactive) | 57.1 µM (inactive) | – | 21.3 µM (inactive) | 19.3 µM (inactive) | 29.6 µM (inactive) | > 100 µM (inactive) | – | 27.9 µM (inactive) | 23 µM (inactive)
9 | C[C@@H](NC(C#N)c1ccco1)c1ccccc1 (some centres not stated) | > 100 µM (inactive) | > 100 µM (inactive) | > 100 µM (inactive) | > 100 µM | – | – | > 100 µM (inactive) | > 100 µM (inactive) | > 100 µM (inactive) | > 100 µM (inactive) | > 100 µM (inactive) | > 100 µM (inactive) | > 100 µM (inactive) | > 100 µM (inactive) | > 100 µM (inactive) | > 100 µM (inactive) | > 100 µM (inactive) | > 100 µM (inactive) | > 100 µM (inactive) | > 100 µM (inactive)
10 | CC(=O)C1C(=O)C(=O)N(c2ccc([N+](=O)[O-])cc2[N+](=O)[O-])C1=O (configuration not stated) | > 100 µM (inactive) | > 100 µM (inactive) | > 100 µM (inactive) | > 100 µM | > 100 µM (inactive) | > 100 µM (inactive) | > 100 µM (inactive) | – | > 100 µM (inactive) | > 100 µM (inactive) | > 100 µM (inactive) | > 100 µM (inactive) | – | > 100 µM (inactive) | > 100 µM (inactive) | 83.6 µM (inactive) | 80.4 µM (inactive) | > 100 µM (inactive) | > 100 µM (inactive) | 1.96 µM (inactive)
11 | CC(=O)O[C@H]1C[C@H](O[C@H]2[C@@H](O)C[C@H](O[C@H]3[C@@H](O)C[C@H](O[C@H]4CC[C@@]5(C)[C@H](CC[C@@H]6[C@@H]5CC[C@]5(O)[C@@H](C7=CC(=O)OC7)CC[C@]65O)C4)O[C@@H]3C)O[C@@H]2C)O[C@H](C)[C@H]1O[C@@H]1O[C@H](CO)[C@@H](O)[C@H](O)[C@H]1O | 0.258 µM (active) | 0.304 µM (active) | 0.116 µM (active) | 0.293 µM | 0.271 µM (active) | 2.35 µM (inactive) | 0.624 µM (active) | 0.403 µM (active) | 1.29 µM (inactive) | 0.137 µM (active) | 0.349 µM (active) | 0.328 µM (active) | 0.462 µM (active) | 0.358 µM (active) | 0.223 µM (active) | 0.555 µM (active) | 0.428 µM (active) | 0.427 µM (active) | 0.769 µM (active) | –
